One test deals with T1, tau (Homo sapiens, UniProt P10636).
T1 construct: expressed in transfected cells; host or cells: E. coli BL21 (DE3) with pTARA (T7 RNA polymerase under pBAD) and pRKT42
Kind of test: In cellulo tau aggregation inhibition, Thioflavin S fluorescence in E. coli overexpressing tau. Conditions: at 10 µM; mean of three experiments ± SEM. In kind it is cell-based, Escherichia coli. An excerpt:
(§1) We screened multifunctional ligands from our in-house library for their anti-aggregating activity against Aβ and tau in the whole bacterial cells using the Thioflavin S (ThS) fluorescence assay. Bacterial cells overexpressing different proteins provide simple models that can be easily employed to monitor the mechanisms of protein aggregation related to a variety of conformational diseases[36]^,[37]. In our assay, E. coli system has been implemented to study the effect of potential Aβ42 and tau aggregation inhibitors within intact cells. The advantage of the test over in vitro tests is the fact that it considers the complexity of the cellular environment that plays a crucial role in tuning protein aggregation. This assay has been validated and successfully applied to assess the anti-aggregating properties of diverse chemical structures. Previously investigated tetrahydrobenzo[h][1,6] naphthyridine-6-chlorotacrine hybrid DP-128 was used as a reference compound[38]^,[39].
(§2) The assays were conducted according to the procedure described previously. All general chemicals were purchased from Sigma-Aldrich (St. Louis, MO) . Reagents for bacterial media were purchased from Conda (Sevilla, Spain). M9 minimal medium for 100 mL: 10 mL of salts 10× (0.68 g of Na2HPO4, 0.30 g of KH2PO4, 0.05 g of NaCl, 0.10 g of NH4Cl), 0.2 mL of 1 M MgSO4, 0.2 mL of 50 mM CaCl2, 2.5 mL of 20% glucose, and 87.1 mL of H2O.
(§3) E. coli competent cells BL21 (DE3) were transformed with the pET28a vector (Novagen, Inc., Madison, WI) carrying the DNA sequence of Aβ42 or with pTARA containing the RNA polymerase gene of T7 phage (T7RP) under the control of the promoter pBAD, then with pRKT42 vector encoding four repeats of tau protein in two inserts. For overnight culture preparation, 10 ml of M9 minimal medium containing 50 μg/mL of kanamycin (Aβ42) or 50 μg/mL of ampicillin and 12.5 μg/mL of chloramphenicol (tau) were inoculated with a colony of BL21 (DE3) bearing the plasmid Aβ42 or tau plasmids to be expressed at 37 °C and 180 rpm using an incubator shaker (Ovan, Barcelona, Spain). After overnight growth, the OD600 was usually 2 − 2.5. For expression of Aβ42 peptide/tau protein, 200 μL of overnight culture were transferred into Eppendorf tubes of 1.5 mL containing 790 μL of fresh M9 minimal medium with 50 μg/mL of kanamycin1 mM of isopropyl 1-thio-β-D-galactopyranoside (IPTG) (Aβ42) or 50 μg/mL of ampicillin, 12.5 μg/mL of chloramphenicol, 0.25% of arabinose (tau), and 25 μM of ThS and 10 μL of reference, tested compounds (1 mM in DMSO, final concentration: 10 μM) or DMSO. The samples were grown for 24 h at 37 °C and 180 rpm using an incubator shaker (Ovan). The samples with DMSO were prepared as a negative control (maximum level of Aβ42/tau, 0% of inhibition). In the positive controls, the M9 medium without IPTG (minimal level of Aβ42) or arabinose (minimal level of tau) was used. For absorbance and fluorescence determination, 200 μL of each Eppendorf tube was transferred in triplicate into 96-well plate. Finally, the fluorescence emission at 520 nm, when exciting at 440 nm and absorbance at 600 nm was recorded using the multi-mode microplate reader (Beckman Counter, Brea, CA). The absorbance at 600 nm (OD600) of these samples was assessed to check the bacterial growth and potential intrinsic toxicity of the tested compounds. Final data are the average of three independent experiments. DP-128 was used as a reference compound[38].

The target of a further test is T2, Aβ42 (Homo sapiens, UniProt P05067).
T2 construct: expressed in transfected cells; host or cells: E. coli BL21 (DE3) with pET28a-Aβ42, IPTG-induced
T2 sequence (P05067 672-713): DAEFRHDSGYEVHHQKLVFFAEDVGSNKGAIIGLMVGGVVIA
Kind of test: In cellulo Aβ42 aggregation inhibition, Thioflavin S fluorescence in E. coli overexpressing Aβ42. Conditions: at 10 µM; mean of three experiments ± SEM. In kind it is cell-based, Escherichia coli.
Excerpt: as §1, §2, §3

Another test addresses T3, human BACE1 (Homo sapiens, UniProt P56817).
T3 construct: purchased Panvera, Madison, WI (BACE1 FRET Assay Kit); host or cells: baculovirus-expressed
Kind of test: In vitro inhibition of human BACE1, FRET assay. In kind it is biochemical. The settings on record: for hBACE1 % inhibition: at 10 µM per table footnote b, mean of three experiments ± SD; for IC50: mean of three experiments ± SEM, read-out: hBACE1 IC50; for BACE1 percentage of inhibition: screening concentration 50 µM. As to the method:
To further explore the multifunctional profile of the ligands, we screened them for their inhibitory activity against human BACE1 using spectrofluorometric assay (fluorescence resonance energy transfer (FRET)-based). […] Therefore, BACE1 inhibitors are now being tested in earlier stages of AD and in asymptomatic subjects at risk of AD, with the hope of blocking the disease process before it becomes irreversible.
BACE1 FRET Assay Kit (Panvera, Madison, WI) was performed according to the manufacturer’s protocol with small modifications. The Kit includes purified baculovirus-expressed BACE1 and specific peptide substrate (Rh-[…]-quencher), based on the “Swedish” mutant of APP. The analysis was carried, using 384-well black microplates and a microplate reader (EnSpire Multimode; PerkinElmer, Waltham, MA). The wavelength was optimised for the 553 nm excitation and 576 nm emission. Stock solutions of all test compounds were prepared in DMSO and further diluted with assay buffer (50 mM sodium acetate; pH 4.5). In the first step, 10 μL of BACE1 substrate was mixed with 10 μL of test compound (or assay buffer; i.e. blank sample), then 10 μL of the enzyme (1 U/mL) was added to start the reaction. After 60 min of incubation at 25 °C, 10 μL of stop solution (2.5 M sodium acetate) was applied to stop the reaction. The fluorescence signal was read at 576 nm. Percent of inhibition was calculated from [1 − (S60 − S0)/(C60 − C0)] × 100, where S0 and S60 are fluorescence intensities of the test sample (enzyme, substrate, test compound) at the beginning of the reaction and after 60 min, respectively, while C0 and C60 are analogical fluorescence intensities of the blank sample (enzyme, substrate, buffer). […] Each compound was analysed in triplicate. Commercially available BACE1 Inhibitor IV (Calbiochem, Merck; Nottingham, UK) was used as the reference compound. The IC50 values were calculated using nonlinear regression (GraphPad Prism 5 [GraphPad Software, San Diego, CA, 5.00]) by plotting the residual enzyme activities against the applied inhibitor concentration.

What is called IC50 is the point on the concentration scale where inhibition reaches its midpoint.

T3 sequence (P56817 46-501): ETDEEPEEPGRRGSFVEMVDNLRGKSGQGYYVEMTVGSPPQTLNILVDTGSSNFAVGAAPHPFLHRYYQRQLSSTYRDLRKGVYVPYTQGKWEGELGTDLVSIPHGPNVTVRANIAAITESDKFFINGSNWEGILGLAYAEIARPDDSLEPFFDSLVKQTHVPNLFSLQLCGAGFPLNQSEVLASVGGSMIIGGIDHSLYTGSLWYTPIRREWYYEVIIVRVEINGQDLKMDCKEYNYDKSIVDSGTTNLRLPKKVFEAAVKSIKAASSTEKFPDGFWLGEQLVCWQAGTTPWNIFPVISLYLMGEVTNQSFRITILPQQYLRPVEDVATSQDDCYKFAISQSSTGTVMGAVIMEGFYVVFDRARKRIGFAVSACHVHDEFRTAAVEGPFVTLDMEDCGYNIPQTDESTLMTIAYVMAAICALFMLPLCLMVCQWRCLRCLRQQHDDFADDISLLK
T1 sequence (P10636 other isoform, or with tags, fused parts or gaps): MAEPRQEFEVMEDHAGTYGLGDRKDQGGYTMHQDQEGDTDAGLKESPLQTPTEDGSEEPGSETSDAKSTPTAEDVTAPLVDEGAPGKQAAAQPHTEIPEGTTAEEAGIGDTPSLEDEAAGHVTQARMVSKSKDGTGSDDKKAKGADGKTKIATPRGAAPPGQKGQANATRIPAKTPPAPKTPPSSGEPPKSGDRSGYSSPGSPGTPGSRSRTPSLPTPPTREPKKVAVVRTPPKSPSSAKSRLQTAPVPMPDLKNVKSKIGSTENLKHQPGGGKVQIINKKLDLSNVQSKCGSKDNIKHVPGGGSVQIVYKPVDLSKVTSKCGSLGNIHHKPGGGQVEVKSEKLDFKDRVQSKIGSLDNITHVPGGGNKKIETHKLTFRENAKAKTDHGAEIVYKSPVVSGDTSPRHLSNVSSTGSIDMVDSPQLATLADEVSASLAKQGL

Consider `c1ccc(CNCCCCCN2CCN(c3cccc4c3ccn4Cc3ccccc3)CC2)cc1` [Compound 22], for which the “In cellulo tau inhibition %” value at tau was determined as 44.3 ± 6.5%. The “In cellulo Aβ42 inhibition %” value at Aβ42 turned out to be 25.2 ± 3.4%. Besides, the hBACE1 % inhibition on human BACE1 is recorded as 63.9% ± 7.7.

On to `O=S(=O)(c1ccccc1)n1ccc2c(N3CCN(CCNCc4ccccc4)CC3)cccc21` [Compound 6], for which the “In cellulo tau inhibition %” value at tau is listed as 54.6 ± 6.2%. Besides, the “In cellulo Aβ42 inhibition %” value at Aβ42 was 64.8 ± 3.4%. In addition, the hBACE1 % inhibition at human BACE1 was 67.4% ± 4.8.

Consider `Cc1c(OCc2ccccc2)cccc1N1CCN(CCCNc2c3c(nc4ccccc24)CCCC3)CC1` [Compound 27], for which, at tau, the “In cellulo tau inhibition %” value amounted to 64.5 ± 4.1%. Also, the “In cellulo Aβ42 inhibition %” value on Aβ42 is reported as 64.9 ± 4.5%. The IC50 on human BACE1 came out at 5.76 ± 0.28 µM.

As for `O=S(=O)(c1ccccc1)n1ccc2c(N3CCN(CCCCCNc4c5c(nc6ccccc46)CCCC5)CC3)cccc21` [Compound 2], the IC50 at human BACE1 turned out to be 8.07 ± 0.15 µM.

For `O=S(=O)(c1ccccc1)n1ccc2c(N3CCN(CCCCCCCNc4c5c(nc6ccccc46)CCCC5)CC3)cccc21` [Compound 4], the “In cellulo tau inhibition %” value at tau was found to be 46.4 ± 5.9%. Besides, on Aβ42, the “In cellulo Aβ42 inhibition %” value was 58.8 ± 4.2%. Moreover, the IC50 on human BACE1 is 1.31 ± 0.06 µM.

For `c1ccc(CNCCCCN2CCN(c3cccc4c3ccn4Cc3ccccc3)CC2)cc1` [Compound 21], at tau, the “In cellulo tau inhibition %” value came to 41.3 ± 6.3%. For the same molecule, the “In cellulo Aβ42 inhibition %” value on Aβ42 amounted to 12.2 ± 4.1%. Besides, the IC50 on human BACE1 was 21.9 ± 1.16 µM.

Regarding `Cc1c(OCc2ccccc2)cccc1N1CCN(CCCCCNCc2ccccc2)CC1` [Compound 33], the “In cellulo tau inhibition %” value at tau was 55.8 ± 5.3%. Besides, the “In cellulo Aβ42 inhibition %” value at Aβ42 was 29.0 ± 4.5%. At human BACE1, the hBACE1 % inhibition is 31.5% ± 1.1 and the “BACE1 percentage of inhibition” value is “about 30%”.

For `c1ccc(CNCCCCCCCN2CCN(c3cccc4c3ccn4Cc3ccccc3)CC2)cc1` [Compound 24], the “In cellulo tau inhibition %” value on tau came out at 55.6 ± 4.2%. At Aβ42, the “In cellulo Aβ42 inhibition %” value worked out at 21.4 ± 3.4%. The IC50 at human BACE1 came out at 21.7 ± 1.57 µM.

As to `c1ccc(Cn2ccc3c(N4CCN(CCCNc5c6c(nc7ccccc57)CCCC6)CC4)cccc32)cc1` [Compound 18], the IC50 on human BACE1 turned out to be 4.58 ± 0.21 µM.

Take `Cc1c(OCc2ccccc2)cccc1N1CCN(CCCNCc2ccccc2)CC1` [Compound 31]: at tau, the “In cellulo tau inhibition %” value is 39.5 ± 8.3%. Besides, on Aβ42, the “In cellulo Aβ42 inhibition %” value is 24.4 ± 3.4%. Moreover, the hBACE1 % inhibition at human BACE1 is 34.0% ± 11.4.

Turning to `O=S(=O)(c1ccccc1)n1ccc2c(N3CCN(CCNc4c5c(nc6ccccc46)CCCC5)CC3)cccc21` [Compound 1], the “In cellulo tau inhibition %” value at tau is 58.1 ± 4.8%. For the same molecule, the “In cellulo Aβ42 inhibition %” value at Aβ42 turned out to be 40.7 ± 4.3%. In addition, the IC50 on human BACE1 turned out to be 1.58 ± 0.15 µM.

`c1ccc(CNCCCCCCN2CCN(c3cccc4c3ccn4Cc3ccccc3)CC2)cc1` [Compound 23]: at tau, the “In cellulo tau inhibition %” value was 28.4 ± 3.8%. For the same molecule, on Aβ42, the “In cellulo Aβ42 inhibition %” value turned out to be 16.4 ± 2.8%. At human BACE1, the half-maximal inhibitory concentration (IC50) was 30.9 ± 1.58 µM.

Regarding `Cc1c(OCc2ccccc2)cccc1N1CCN(CCCCNCc2ccccc2)CC1` [Compound 32], on tau, the “In cellulo tau inhibition %” value is reported as 42.5 ± 6.3%. Further, the “In cellulo Aβ42 inhibition %” value at Aβ42 was 43.2 ± 5.4%. Besides, at human BACE1, the hBACE1 % inhibition is 42.8% ± 12.7 and the “BACE1 percentage of inhibition” value came out at 42.8%.

Turning to `Cc1c(OCc2ccccc2)cccc1N1CCN(CCCCCCNc2c3c(nc4ccccc24)CCCC3)CC1` [Compound 28], the “In cellulo tau inhibition %” value at tau was found to be 64.8 ± 2.2%. Besides, on Aβ42, the “In cellulo Aβ42 inhibition %” value is 64.2 ± 3.4%. Further, at human BACE1, the hBACE1 % inhibition is recorded as 67.4% ± 11.3 and the “BACE1 percentage of inhibition” value came to 67%.

In the case of `Cc1c(OCc2ccccc2)cccc1N1CCN(CCCCCCCNc2c3c(nc4ccccc24)CCCC3)CC1` [Compound 29], on tau, the “In cellulo tau inhibition %” value amounted to 70.3 ± 3.9%. Moreover, the “In cellulo Aβ42 inhibition %” value at Aβ42 is listed as 67.4 ± 4.1%. Besides, the half-maximal inhibitory concentration (IC50) at human BACE1 was 4.07 ± 0.27 µM.

Consider `Cc1c(OCc2ccccc2)cccc1N1CCN(CCCCCCCCNc2c3c(nc4ccccc24)CCCC3)CC1` [Compound 30], for which the “In cellulo tau inhibition %” value at tau was 60.2 ± 2.6%. The “In cellulo Aβ42 inhibition %” value on Aβ42 was 66.7 ± 5.1%. Also, at human BACE1, the hBACE1 % inhibition is on record as 33.6% ± 11.1 and the “BACE1 percentage of inhibition” value was determined as 34%.

For `c1ccc(Cn2ccc3c(N4CCN(CCCCCNc5c6c(nc7ccccc57)CCCC6)CC4)cccc32)cc1` [Compound 19], the 50% inhibitory concentration (IC50) on human BACE1 is 7.23 ± 0.38 µM.

Turning to `O=S(=O)(c1ccccc1)n1ccc2c(N3CCN(CCCCNCc4ccccc4)CC3)cccc21` [Compound 8], the “In cellulo tau inhibition %” value at tau was determined as 45.1 ± 5.1%. Also, the “In cellulo Aβ42 inhibition %” value at Aβ42 was found to be 54.5 ± 3.8%. Also, the half-maximal inhibitory concentration (IC50) on human BACE1 amounted to 19.7 ± 1.54 µM.

For the molecule `O=S(=O)(c1ccccc1)n1ccc2c(N3CCN(CCCNCc4ccccc4)CC3)cccc21` [Compound 7], the “In cellulo tau inhibition %” value at tau came to 39.7 ± 3.8%. The “In cellulo Aβ42 inhibition %” value at Aβ42 came to 48.3 ± 4.2%. Moreover, the IC50 at human BACE1 amounted to 5.82 ± 0.34 µM.

Consider `O=S(=O)(c1ccccc1)n1ccc2c(N3CCN(CCCCCNCc4ccccc4)CC3)cccc21` [Compound 9], for which the “In cellulo tau inhibition %” value on tau amounted to 44.8 ± 5.6%. Also, the “In cellulo Aβ42 inhibition %” value on Aβ42 amounted to 48.0 ± 4.0%. Besides, the IC50 at human BACE1 was determined as 23.4 ± 1.6 µM.

`O=S(=O)(c1ccccc1)n1ccc2c(N3CCN(CCCCCCCCNc4c5c(nc6ccccc46)CCCC5)CC3)cccc21` [Compound 5]: on tau, the “In cellulo tau inhibition %” value was found to be 52.7 ± 5.7%. Also, the “In cellulo Aβ42 inhibition %” value at Aβ42 is 61.8 ± 4.1%. Further, the 50% inhibitory concentration (IC50) at human BACE1 was found to be 2.29 ± 0.13 µM.

On to `c1ccc(Cn2ccc3c(N4CCN(CCCCCCNc5c6c(nc7ccccc57)CCCC6)CC4)cccc32)cc1` [Compound 20], for which the “In cellulo tau inhibition %” value at tau came out at 64.0 ± 5.1%. Also, at Aβ42, the “In cellulo Aβ42 inhibition %” value was determined as 66.9 ± 3.9%. On human BACE1, the hBACE1 % inhibition is listed as 62.1% ± 5.8 and the “BACE1 percentage of inhibition” value came to 62%.
